Experimental data reported in ChEMBL document CHEMBL1201862, “PubChem BioAssay data set” (2004).
The source made the active and inactive calls.

Tests used:
Interleukin-8 [1] = molecular target: T1, Interleukin-8 (Homo sapiens, UniProt P10145); assay: Dose Response confirmation of uHTS small molecule hits for cystic fibrosis induced NFkb Inhibitors in a PAF-induced IL8 counterscreen.; format: functional; settings: read-out: IC50_Mean
Interleukin-8 [2] = molecular target: T1, Interleukin-8; assay: Dose Response confirmation of uHTS small molecule hits for cystic fibrosis induced NFkb Inhibitors in a TNFa-induced IL8 counterscreen.; format: functional; settings: read-out: IC50_Mean
Mu-type opioid receptor = Mu-type opioid receptor (Homo sapiens, UniProt P35372); assay: (§1) Counterscreen for agonists of heterodimerization of the mu 1 (OPRM1) and delta 1 (OPRD1) opioid receptors: Luminescence-based cell-based high throughput dose response assay to identify agonists of OPRM1 homodimerization.; format: functional
[3] = molecular target: Ras and Rab interactor 1/Tyrosine-protein kinase ABL1 (Homo sapiens, UniProt P00519+Q13671); format: functional;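 also: biochemical TR-FRET dose-response test measuring inhibition of binding between Rin1 and Abl proteins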
[4] = Shn3 3'UTR reporter inhibitors, dose response, cell-based, Clone20 osteoblasts, firefly luciferase, cherry-picked (AID 624132); format: functional;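 also: firefly luciferase luminescence from reporter carrying the Shn3 3'UTR in osteoblasts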
[5] = HepG2 cell cytotoxicity, dose response, cytotoxicity control for Shn3 inhibitor project, CellTiter-Glo, cherry-picked (AID 624134); format: functional, cell-based
[6] = molecular target: 5-hydroxytryptamine receptor 5A (Homo sapiens, UniProt P47898); assay: Counterscreen for agonists of OPRM1-OPRD1 heterodimerization: luminescence-based cell-based high throughput dose response assay to identify agonists of 5-hydroxytryptamine (serotonin) 5A receptor (HTR5A). [Related pubchem assays (depositor defined):AID504326, AID504355, AID504692, AID504904, AID504905]; format: functional
[7] = control 3'UTR Renilla luciferase suppression, dose response, counter-screen for Shn3 inhibitor project, cell-based, Clone20-Shn3RL, cherry-picked (AID 624133); format: functional
Nonstructural protein 1 = Nonstructural protein 1 (Influenza A virus, UniProt Q194T2); format: functional, Influenza A virus (A/California/07/2009(H1N1))
[8] = molecular target: Delta-type opioid receptor (Homo sapiens, UniProt P41143); assay: as §1, with “of OPRD1” for “of OPRM1”, “homodimerization. [Related pubchem assays (depositor defined):AID504326, AID504355, AID504692, AID504904, AID504905]” for “homodimerization.”; format: functional
[9] = molecular target: T2, ATP-dependent translocase ABCB1 (Homo sapiens, UniProt P08183); assay: ABCG2 efflux pump inhibitor potency, dose response, Ig-MXP3 cells, JC-1, flow cytometry, set 2 (AID 504566); format: functional; settings: read-out: EC50_MICROM_;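 also: flow cytometry median green fluorescence of retained JC-1 dye; potency of efflux pump inhibition measured as rising substrate retention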
[10] = molecular target: T2, ATP-dependent translocase ABCB1; assay: ABCB1 efflux inhibitor potency, dose response, Jurkat-DNR cells, JC-1, flow cytometry, set 2 (AID 504569); format: functional; settings: read-out: EC50_MICROM_;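 also: potency of pump inhibitors that raise cellular JC-1 green fluorescence up to the nicardipine level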
[11] = molecular target: T3, Low molecular weight phosphotyrosine protein phosphatase (Homo sapiens, UniProt P24666); format: functional; settings: read-out: IC50_Mean
T3 sequence (P24666 whole entry): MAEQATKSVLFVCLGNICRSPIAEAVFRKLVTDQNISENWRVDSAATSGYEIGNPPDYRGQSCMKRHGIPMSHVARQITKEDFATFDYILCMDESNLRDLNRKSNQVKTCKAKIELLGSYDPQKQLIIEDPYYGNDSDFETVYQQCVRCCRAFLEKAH

[12] = molecular target: T4, Tyrosine-protein phosphatase non-receptor type 5 (Homo sapiens, UniProt P54829); assay: STEP phosphatase inhibitors, confirmation, biochemical, fluorescence intensity, uHTS hits (AID 602372); format: functional; settings: read-out: IC50_Mean
T4 sequence (P54829 whole entry): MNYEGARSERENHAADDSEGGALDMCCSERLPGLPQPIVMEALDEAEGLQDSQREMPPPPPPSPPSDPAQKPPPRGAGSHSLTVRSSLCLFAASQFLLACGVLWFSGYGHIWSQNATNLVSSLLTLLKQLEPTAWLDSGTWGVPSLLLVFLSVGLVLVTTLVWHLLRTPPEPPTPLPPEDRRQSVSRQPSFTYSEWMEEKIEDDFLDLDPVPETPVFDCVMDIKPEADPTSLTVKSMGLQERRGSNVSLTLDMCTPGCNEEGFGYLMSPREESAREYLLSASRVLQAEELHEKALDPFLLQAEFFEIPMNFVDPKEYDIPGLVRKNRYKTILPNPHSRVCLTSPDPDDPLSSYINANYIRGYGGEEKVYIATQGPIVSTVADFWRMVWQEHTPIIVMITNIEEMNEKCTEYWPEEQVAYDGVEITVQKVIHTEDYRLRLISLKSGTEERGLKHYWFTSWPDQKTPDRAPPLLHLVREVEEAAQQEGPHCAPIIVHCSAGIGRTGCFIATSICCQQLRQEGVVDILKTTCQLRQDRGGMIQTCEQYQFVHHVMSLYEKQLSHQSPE

[13] = molecular target: Dual specificity protein phosphatase 3 (Homo sapiens, UniProt P51452); assay: VHR phosphatase inhibition, dose response, selectivity assay for STEP inhibitor project, biochemical (AID 602374); format: functional; settings: read-out: IC50_Mean
[14] = molecular target: T3, Low molecular weight phosphotyrosine protein phosphatase; format: functional; settings: read-out: IC50_Mean; remark: listed apart in the source
[15] = molecular target: T5, Tyrosine-protein phosphatase non-receptor type 11 (Homo sapiens, UniProt Q06124); assay: SHP2 phosphatase inhibition, dose response, selectivity assay for STEP inhibitor project, biochemical (AID 602367); format: functional; settings: read-out: IC50_Mean
T5 sequence (Q06124 whole entry): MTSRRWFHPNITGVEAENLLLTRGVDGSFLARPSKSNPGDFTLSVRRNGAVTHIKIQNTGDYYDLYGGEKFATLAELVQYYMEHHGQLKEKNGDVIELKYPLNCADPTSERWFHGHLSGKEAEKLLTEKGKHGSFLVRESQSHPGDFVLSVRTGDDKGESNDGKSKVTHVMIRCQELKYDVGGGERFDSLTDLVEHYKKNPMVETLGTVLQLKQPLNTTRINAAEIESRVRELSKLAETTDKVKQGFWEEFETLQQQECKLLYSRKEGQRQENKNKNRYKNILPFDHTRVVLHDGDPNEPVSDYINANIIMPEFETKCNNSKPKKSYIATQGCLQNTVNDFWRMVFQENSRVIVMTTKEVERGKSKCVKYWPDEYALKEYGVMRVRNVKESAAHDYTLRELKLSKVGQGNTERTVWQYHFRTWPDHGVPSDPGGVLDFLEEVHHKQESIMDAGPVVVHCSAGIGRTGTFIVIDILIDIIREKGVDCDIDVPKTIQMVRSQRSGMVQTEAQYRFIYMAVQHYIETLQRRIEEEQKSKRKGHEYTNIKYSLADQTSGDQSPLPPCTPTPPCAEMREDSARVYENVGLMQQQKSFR

[16] = ARNT/TACC3 interaction disruptors, potency, confirmation, biochemical, AlphaScreen, cherry-picked samples (AID 651703); format: functional, Homo sapiens;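 also: His-tagged ARNT PAS-B domain paired with GST-TACC3 E629A dimer coactivator fragment; potency of inhibitors that break up the complex and lower AlphaScreen signal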
Streptokinase A = molecular target: T6, Streptokinase A (Streptococcus pyogenes serotype M1, UniProt P10520); assay: S. pyogenes streptokinase expression inhibitors, potency, dose response, plasminogen activation absorbance, OD405 (AID 1914); format: functional, Streptococcus pyogenes M1 GAS;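 also: secreted streptokinase activity via plasminogen activation per viability signal from cell pellet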
T6 sequence (P10520 whole entry): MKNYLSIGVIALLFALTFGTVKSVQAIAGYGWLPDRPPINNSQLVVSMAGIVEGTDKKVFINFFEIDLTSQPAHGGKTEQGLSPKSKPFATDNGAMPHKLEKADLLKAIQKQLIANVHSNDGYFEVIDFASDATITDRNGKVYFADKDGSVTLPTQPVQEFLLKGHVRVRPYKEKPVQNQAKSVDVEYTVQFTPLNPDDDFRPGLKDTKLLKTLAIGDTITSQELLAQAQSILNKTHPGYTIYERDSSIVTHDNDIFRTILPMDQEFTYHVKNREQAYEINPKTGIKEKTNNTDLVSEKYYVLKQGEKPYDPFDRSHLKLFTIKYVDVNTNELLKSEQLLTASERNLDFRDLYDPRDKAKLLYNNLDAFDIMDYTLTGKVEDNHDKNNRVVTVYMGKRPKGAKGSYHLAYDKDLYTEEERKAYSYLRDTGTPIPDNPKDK

[17] = AlphaScreen signal interference compounds, dose response, artefact control for ARNT-TACC3 interaction inhibitor project, biochemical, luminescence, cherry-pick (AID 651705); format: functional;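 also: AlphaScreen bead proximity signal that flags compounds interfering with the detection technology; potency reflects signal decrease which marks the compound as an assay artifact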
Vero = Vero cell cytotoxicity, cytotoxicity control for flavivirus capping enzyme inhibitors (AID 588742); format: functional; settings: Chlorocebus sabaeus
Streptococcus = assay: Group A Streptococcus viability loss, dose response, counter-screen for streptokinase expression inhibitor project, luminescence, BacTiterGlo (AID 1915); format: functional, organism-based;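 also: potency for reduction of bacterial viability or growth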
Genome polyprotein = Genome polyprotein (dengue virus type 2, UniProt P29990); assay: Dengue-2 NS5 methyltransferase inhibitors, primary screen, biochemical, confirmation dose response (AID 588689); format: functional
[18] = test system: Streptococcus sp. 'group A'; assay: growth inhibition of control SK(-) GAS strain, dose response, counter-screen for streptokinase expression inhibitor project, luminescence, kanamycin, BacTiterGlo, confirmation (AID 1900); format: functional, organism-based
[19] = molecular target: T7, Apoptotic protease-activating factor 1 (Homo sapiens, UniProt O14727); assay: SAR analysis of small molecule Activators of Apaf-1 in a Fluorescent assay.; format: functional; settings: read-out: EC50_Mean;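 also: caspase-3 cleavage of fluorogenic Rh110 DEVD substrate downstream of apoptosome activation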
T7 sequence (O14727 whole entry): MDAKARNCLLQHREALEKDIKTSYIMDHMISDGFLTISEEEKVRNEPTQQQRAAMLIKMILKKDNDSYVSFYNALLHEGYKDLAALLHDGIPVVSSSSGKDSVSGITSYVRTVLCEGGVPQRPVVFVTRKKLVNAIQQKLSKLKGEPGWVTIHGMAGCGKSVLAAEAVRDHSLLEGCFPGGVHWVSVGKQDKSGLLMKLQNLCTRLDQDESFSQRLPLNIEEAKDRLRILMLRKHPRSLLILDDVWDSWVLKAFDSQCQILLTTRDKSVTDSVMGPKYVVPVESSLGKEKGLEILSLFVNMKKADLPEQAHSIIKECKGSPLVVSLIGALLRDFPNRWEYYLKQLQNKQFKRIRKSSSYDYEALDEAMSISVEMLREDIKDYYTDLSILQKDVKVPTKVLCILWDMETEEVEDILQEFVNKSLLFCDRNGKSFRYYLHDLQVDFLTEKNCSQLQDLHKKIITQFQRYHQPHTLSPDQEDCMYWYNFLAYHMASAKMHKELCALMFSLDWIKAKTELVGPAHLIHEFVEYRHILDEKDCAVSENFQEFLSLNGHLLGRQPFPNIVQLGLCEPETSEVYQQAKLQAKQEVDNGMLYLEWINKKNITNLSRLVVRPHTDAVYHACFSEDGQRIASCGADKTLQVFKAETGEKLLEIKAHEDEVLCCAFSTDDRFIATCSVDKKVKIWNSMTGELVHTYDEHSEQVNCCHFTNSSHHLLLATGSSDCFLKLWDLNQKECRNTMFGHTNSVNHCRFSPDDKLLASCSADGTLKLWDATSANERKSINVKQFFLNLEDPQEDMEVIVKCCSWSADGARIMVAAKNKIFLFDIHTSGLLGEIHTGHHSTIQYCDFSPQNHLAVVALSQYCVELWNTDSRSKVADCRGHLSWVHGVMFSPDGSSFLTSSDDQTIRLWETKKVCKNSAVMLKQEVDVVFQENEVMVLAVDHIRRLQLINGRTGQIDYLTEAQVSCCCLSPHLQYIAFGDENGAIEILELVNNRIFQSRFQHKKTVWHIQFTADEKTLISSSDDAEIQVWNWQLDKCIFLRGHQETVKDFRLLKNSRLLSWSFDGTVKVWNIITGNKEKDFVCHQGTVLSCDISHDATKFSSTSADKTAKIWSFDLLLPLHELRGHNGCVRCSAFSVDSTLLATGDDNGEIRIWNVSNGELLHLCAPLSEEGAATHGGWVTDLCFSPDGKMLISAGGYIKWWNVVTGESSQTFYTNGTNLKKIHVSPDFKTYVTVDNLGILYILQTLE

T2 sequence (P08183 whole entry): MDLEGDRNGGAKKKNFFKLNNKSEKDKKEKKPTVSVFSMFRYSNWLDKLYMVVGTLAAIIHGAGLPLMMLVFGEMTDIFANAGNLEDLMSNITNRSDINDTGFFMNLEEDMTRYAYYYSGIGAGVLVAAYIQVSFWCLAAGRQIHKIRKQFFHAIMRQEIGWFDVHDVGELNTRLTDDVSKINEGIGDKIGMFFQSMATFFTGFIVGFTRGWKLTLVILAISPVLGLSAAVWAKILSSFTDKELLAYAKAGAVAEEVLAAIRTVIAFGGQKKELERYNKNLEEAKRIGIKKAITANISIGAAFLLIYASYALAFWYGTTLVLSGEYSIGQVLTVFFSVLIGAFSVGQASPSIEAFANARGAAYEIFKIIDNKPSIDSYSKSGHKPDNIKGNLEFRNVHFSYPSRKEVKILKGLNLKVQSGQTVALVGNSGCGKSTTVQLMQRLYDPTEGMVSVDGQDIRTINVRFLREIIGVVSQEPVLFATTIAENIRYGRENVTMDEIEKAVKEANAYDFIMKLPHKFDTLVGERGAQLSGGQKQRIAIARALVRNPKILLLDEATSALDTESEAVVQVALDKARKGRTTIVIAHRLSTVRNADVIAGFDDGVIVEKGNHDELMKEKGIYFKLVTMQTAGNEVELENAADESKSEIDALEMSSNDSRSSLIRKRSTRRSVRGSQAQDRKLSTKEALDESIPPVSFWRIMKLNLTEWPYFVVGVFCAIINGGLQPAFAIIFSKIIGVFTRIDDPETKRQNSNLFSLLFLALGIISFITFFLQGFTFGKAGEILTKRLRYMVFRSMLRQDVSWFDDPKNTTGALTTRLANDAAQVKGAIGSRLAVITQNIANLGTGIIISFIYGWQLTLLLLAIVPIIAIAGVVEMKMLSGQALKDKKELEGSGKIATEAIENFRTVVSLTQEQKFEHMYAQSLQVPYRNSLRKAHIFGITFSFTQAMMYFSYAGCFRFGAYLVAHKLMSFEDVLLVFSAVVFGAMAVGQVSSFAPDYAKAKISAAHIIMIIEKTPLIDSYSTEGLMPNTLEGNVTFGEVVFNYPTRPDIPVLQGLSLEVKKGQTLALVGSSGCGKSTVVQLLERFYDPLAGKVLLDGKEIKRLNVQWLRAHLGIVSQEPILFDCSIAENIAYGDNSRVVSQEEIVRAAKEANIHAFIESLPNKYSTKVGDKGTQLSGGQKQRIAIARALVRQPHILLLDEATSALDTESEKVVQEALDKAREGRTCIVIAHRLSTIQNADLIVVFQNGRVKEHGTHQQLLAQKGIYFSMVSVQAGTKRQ
T1 sequence (P10145 whole entry): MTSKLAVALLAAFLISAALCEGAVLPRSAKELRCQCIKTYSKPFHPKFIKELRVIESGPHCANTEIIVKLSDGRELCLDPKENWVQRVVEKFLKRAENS
5-hydroxytryptamine receptor 5A, sequence (P47898 whole entry): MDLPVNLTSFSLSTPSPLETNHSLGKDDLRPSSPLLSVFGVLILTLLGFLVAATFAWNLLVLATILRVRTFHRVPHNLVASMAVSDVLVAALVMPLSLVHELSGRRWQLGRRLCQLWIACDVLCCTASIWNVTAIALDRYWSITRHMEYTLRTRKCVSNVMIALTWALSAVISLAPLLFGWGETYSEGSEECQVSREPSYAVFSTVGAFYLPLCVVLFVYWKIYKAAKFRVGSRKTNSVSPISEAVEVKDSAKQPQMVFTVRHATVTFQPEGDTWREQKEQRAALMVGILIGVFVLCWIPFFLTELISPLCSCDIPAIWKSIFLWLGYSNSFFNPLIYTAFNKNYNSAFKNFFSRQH
Dual specificity protein phosphatase 3, sequence (P51452 whole entry): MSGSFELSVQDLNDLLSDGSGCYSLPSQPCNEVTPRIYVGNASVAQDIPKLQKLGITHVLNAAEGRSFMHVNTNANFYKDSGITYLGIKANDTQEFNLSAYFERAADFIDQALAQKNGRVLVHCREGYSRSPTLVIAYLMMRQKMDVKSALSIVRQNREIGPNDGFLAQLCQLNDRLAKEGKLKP
Genome polyprotein, sequence (P29990 2492-3391 limits assumed): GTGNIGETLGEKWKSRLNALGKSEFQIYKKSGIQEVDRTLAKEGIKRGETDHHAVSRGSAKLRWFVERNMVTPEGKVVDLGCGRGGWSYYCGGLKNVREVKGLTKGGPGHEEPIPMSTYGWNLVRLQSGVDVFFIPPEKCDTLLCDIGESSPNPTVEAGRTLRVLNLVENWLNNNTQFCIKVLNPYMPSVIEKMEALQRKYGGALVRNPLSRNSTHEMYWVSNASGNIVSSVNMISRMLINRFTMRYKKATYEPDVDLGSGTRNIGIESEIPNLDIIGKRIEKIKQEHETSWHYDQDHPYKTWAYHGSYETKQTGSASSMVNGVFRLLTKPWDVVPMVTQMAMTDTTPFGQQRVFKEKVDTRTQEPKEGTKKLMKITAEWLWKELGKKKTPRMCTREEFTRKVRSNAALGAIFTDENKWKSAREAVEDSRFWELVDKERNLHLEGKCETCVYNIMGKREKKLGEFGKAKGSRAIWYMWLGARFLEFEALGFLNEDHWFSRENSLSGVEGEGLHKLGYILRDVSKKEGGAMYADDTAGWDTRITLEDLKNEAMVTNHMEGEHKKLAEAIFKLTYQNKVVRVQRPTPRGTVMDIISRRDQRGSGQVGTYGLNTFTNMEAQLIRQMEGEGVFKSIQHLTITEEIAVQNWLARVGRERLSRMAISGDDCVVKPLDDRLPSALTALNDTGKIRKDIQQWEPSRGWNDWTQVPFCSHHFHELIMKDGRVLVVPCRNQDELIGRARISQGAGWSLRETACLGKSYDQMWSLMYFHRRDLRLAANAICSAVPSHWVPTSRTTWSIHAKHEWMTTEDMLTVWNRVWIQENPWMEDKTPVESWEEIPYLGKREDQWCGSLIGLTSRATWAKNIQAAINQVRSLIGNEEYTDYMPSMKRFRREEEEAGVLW
Nonstructural protein 1, sequence (Q194T2 whole entry): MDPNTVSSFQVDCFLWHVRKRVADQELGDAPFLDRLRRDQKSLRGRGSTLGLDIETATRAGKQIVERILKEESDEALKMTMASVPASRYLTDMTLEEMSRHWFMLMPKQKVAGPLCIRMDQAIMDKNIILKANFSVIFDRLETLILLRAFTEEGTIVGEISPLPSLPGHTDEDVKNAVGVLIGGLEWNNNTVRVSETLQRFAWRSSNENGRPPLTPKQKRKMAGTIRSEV
Ras and Rab interactor 1/Tyrosine-protein kinase ABL1, sequence (P00519 whole entry): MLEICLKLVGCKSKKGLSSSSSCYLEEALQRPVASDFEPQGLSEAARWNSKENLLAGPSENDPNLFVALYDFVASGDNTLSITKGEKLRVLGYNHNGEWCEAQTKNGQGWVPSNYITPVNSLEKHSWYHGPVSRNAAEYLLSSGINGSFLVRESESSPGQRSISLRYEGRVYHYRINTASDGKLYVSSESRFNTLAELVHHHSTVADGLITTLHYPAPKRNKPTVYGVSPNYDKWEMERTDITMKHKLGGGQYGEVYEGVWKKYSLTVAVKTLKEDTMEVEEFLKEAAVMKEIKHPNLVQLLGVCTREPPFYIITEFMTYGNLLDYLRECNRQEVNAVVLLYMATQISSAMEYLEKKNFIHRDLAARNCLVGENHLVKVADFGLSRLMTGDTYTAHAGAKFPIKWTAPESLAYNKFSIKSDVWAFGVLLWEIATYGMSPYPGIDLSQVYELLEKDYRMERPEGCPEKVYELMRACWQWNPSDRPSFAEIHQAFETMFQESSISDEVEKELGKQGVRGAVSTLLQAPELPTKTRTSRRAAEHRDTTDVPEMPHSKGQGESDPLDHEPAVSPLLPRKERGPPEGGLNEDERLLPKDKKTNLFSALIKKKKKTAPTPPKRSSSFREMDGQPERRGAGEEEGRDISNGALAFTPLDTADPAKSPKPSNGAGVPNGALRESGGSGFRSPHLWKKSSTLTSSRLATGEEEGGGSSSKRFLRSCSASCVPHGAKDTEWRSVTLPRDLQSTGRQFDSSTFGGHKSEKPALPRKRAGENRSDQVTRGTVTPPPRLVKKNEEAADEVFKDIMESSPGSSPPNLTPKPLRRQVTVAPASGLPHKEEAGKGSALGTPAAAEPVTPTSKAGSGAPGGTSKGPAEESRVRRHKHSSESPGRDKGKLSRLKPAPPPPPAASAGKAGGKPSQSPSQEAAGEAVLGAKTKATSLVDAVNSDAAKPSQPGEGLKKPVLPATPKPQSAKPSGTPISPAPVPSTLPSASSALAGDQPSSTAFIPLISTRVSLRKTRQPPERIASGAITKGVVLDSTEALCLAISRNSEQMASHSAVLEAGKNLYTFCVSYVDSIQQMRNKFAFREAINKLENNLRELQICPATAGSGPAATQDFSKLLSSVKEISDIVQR
Ras and Rab interactor 1/Tyrosine-protein kinase ABL1, sequence (Q13671 whole entry): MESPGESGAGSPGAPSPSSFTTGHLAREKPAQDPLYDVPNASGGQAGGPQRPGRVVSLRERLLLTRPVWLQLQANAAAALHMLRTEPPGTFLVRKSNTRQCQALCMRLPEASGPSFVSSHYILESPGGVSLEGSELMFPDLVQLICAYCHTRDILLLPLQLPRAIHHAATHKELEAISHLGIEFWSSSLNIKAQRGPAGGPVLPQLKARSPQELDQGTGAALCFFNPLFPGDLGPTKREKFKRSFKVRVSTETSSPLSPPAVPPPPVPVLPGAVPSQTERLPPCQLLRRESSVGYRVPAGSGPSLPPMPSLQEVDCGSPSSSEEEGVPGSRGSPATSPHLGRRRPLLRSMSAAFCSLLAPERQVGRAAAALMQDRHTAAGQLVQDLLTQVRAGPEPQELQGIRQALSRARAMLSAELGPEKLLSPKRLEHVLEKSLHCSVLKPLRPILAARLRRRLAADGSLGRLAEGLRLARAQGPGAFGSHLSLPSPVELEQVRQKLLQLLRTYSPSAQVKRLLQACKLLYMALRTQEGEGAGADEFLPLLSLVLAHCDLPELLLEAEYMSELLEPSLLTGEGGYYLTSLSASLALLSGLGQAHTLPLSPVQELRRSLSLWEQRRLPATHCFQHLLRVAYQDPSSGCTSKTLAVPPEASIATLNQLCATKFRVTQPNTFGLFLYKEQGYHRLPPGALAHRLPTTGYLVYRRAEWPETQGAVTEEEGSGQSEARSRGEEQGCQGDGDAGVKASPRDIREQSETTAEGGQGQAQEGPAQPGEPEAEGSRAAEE

Fc1cccc(Cl)c1/C=N/Nc1c(Cl)cncc1Cl
IC50 (Interleukin-8 [1]): 14.8 µM (inactive)
IC50 (Interleukin-8 [2]): > 79 µM (inactive)

Cc1nc2nc(C)n(CCN3CCOCC3)c(=O)c2c(-c2cccc([N+](=O)[O-])c2)c1C(=O)CCCCCCCCCCN1CCC(c2ccccc2)(c2ccccc2)CC1
EC50 (Mu-type opioid receptor): > 92.4 µM (inactive)
IC50 [3]: 1.35 µM (active)
AC50 [4]: 7.38 µM (active)
AC50 [5]: 14.7 µM (active)
EC50 [6]: > 92.4 µM (inactive)
AC50 [7]: 11.3 µM (active)
IC50 (Nonstructural protein 1): 21.9 µM (active)
EC50 [8]: > 92.4 µM (inactive)

O=C(c1ccccc1Cl)N1CCN(c2cc(-c3ccccc3)nc3cc(-c4cccc(Cl)c4)nn23)CC1
EC50 [9]: 1.15 µM (active)
EC50 [10]: 1.07 µM (active)

O=C(N/N=C/c1cccc([N+](=O)[O-])c1)c1ccc(Br)cc1
IC50 [11]: 22.8 µM (inactive)
IC50 [12]: 8.16 µM (active)
IC50 [13]: 5.03 µM (active)
IC50 [14]: 15.1 µM (active)
IC50 [15]: 6.62 µM (active)

COc1cccc(-c2coc3c(C)c4oc(=O)c(CCC(=O)O)c(C)c4cc23)c1
AC50 [16]: 130 µM (active)
EC50 (Streptokinase A): > 150 µM (not active)
AC50 [17]: 98 µM (active)
CC50 (Vero): > 40 µM (active)
EC50 (Streptococcus): 13.4 µM (active)
IC50 (Genome polyprotein): 40.5 µM (active)
EC50 [18]: 2.4 µM (active)

Cc1cc(C)c(O)c(N2CC(C(=O)O)CC2=O)c1 (stereo not given)
EC50 [19]: > 100 µM (inactive)
